# Source: patent US7727511B2, “Agents for imaging soluble a-beta” (priority 2003, dated 2010)
# “Also recorded” adds a separate entry of the source.
# Experiments:
# [1] = molecular target: T1, beta-amyloid soluble oligomers (Homo sapiens, UniProt P05067); assay: Ex vivo fluorescent binding assay, pre-formed soluble oligomers on naive rat brain sections; settings: 50 μM probe, naive rat brain section, fluorescence microscopy
# T1 construct: 1 mg of human beta-amyloid 1-42 (H-5642, Bachem); purchased Bachem H-5642; host or cells: synthetic peptide
# T1 sequence (P05067 672-713 limits assumed): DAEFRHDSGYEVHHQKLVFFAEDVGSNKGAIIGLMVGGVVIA
# Description: A. 1 mg of human beta-amyloid 1-42 (H-5642, Bachem) and 500 uL of 1,1,1,3,3,3 hexafluoro-2-propanol (HFIP) (Aldrich) were chilled in separate bottles on ice for 30 mins. Cold beta-amyloid 1-42 was solubilized with cold HFIP. The mixture was incubated for 1 hr at room temperature until it turned clear. The resulting solution was then dried to a film under vacuum. The film was dissolved again in cold HFIP and incubated another 1 hr at room temperature. The resulting solution was separated into aliquots in several microcentrifuge tubes. HFIP was removed under vacuum, and the films were stored at −20° C. until use. […]
# A 1/100th dilution of the secondary antibody Alexa Fluor 594-goat anti-mouse IgG (Molecular Probes) in PBS was applied onto the slides, and incubated at room temperature for 1.5 hours. […] Microscopic examination and imaging was performed using a Leica wide-field fluorescence microscope using filter cube A (band pass 340-380 nm with a 400 nm dichroic mirror and a long pass 400 nm suppression filter) for 49b, cube E4 (band pass 436 nm with 455 dichroic mirror and a long pass 470 nm suppression filter) for Thioflavin T, and TX2 (band pass 520-600 nm with 595 nm dichroic mirror and 645/75 band pass suppression filter) for 6E10 immunostaining. […]
# [2] = test system: beta-amyloid in PDAPP mouse brain sections; assay: Histochemical staining on PDAPP transgenic mouse brain sections; assay type: binding
# Description: 3-month old and 24-month old PDAPP mouse brains were obtained from Eli Lilly (Indianapolis, Ind.). Fresh frozen 30 micron sections of the brains were fixed in 10% formalin. For 49b, or Thioflavin S staining, 1 mM stock solutions of 49b and Thioflavin S were prepared in 50% ethanol. The probes were diluted to 25 μM in 50% ethanol, and then applied onto the PDAPP brain sections. The slides were incubated in a humid chamber at room temperature for 1 hr. The slides were washed three times with PBS and mounting medium (Molecular Probes) was added. The slides were incubated at least 4-6 hours before imaging. For the carbonate pre-treatment of the brain sections, formalin-fixed sections were incubated with 100 μL of carbonate buffer containing 0.025 M sodium chloride and 0.1 M sodium carbonate for 45 mins at 37° C. The slides were washed three times with PBS, then 49b or Thioflavin S were applied on the slides as described above. Microscopic examination and imaging was performed using a Leica wide-field fluorescence microscope using filter cube A for 49b and cube E4 for Thioflavin S. Co-staining of the probes with 6E10 anti-beta-amyloid antibody in the PDAPP brain sections was described in the ex vivo assay using naïve rats.
structure (smiles),measurement,setting,value
"O=Cc1ccc(-c2oc3ccccc3c2CO)o1 [Compound 49b, 2-(2-formyl-5-furanyl)-3-hydroxymethyl benzofuran]",staining of immobilized oligomers,[1],clear staining of oligomers with low background
same,staining of brain sections,"[2]; 24-month old PDAPP mice, 25 μM probe",punctuate staining pattern that co-localized with beta-amyloid immunoreactivity; also recorded: primarily found in the hippocampus and co-localized with Thioflavin S staining
same,staining of carbonate pre-treated brain sections,"[2]; 24-month old PDAPP, carbonate extraction buffer to remove soluble material",did not stain
same,staining of brain sections,[2]; young (3-month old) PDAPP mice,No staining was observed
